Results as given in paper PMC4263425 (Biochemistry, 2014).

How the values were obtained:
[1] = target: HDAC8; conditions: read-out: Ki for HDAC8; cited from earlier work
[2] = target: T1, human HDAC8 (Homo sapiens, UniProt Q9BY41); experiment: Isothermal titration calorimetry; type: binding
T1 sequence (Q9BY41 1-377): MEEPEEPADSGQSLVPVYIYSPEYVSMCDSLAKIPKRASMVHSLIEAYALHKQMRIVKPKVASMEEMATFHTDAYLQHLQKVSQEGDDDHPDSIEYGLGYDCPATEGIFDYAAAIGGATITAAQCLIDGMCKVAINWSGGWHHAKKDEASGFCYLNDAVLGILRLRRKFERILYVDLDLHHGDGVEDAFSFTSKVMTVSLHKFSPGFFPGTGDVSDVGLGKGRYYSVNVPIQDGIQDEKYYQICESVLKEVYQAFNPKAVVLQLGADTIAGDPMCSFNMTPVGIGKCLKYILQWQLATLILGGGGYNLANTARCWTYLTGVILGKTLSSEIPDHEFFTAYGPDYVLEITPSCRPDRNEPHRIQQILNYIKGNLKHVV

[3] = target: T1, human HDAC8; experiment: Temperature-dependent ITC; type: binding; conditions: for temp (K), where ΔG° = ΔH°: interpolated from the ΔCp° plots, TΔS° = 0
[4] = Tris-HCl buffer (pH 7.5), 25 °C
[5] = difference versus SAHA, Table 1 conditions

stoichiometry [2, 4]	ΔG°obs [2, 4]	temp (K), where ΔG° = ΔH° [3] [K]	SMILES	Ki [1] [nM]	further results
			O=C(CCCc1ccccc1)NO [4-PBHA]	1850	
			Cn1cc(C(=O)c2ccccc2)cc1C=CC(=O)NO [APHA]	600	
0.9 ± 0.1	–8.0 ± 0.4 kcal/mol	341	CC(NC(=O)CCCc1ccc2ccc3cccc4ccc1c2c34)C(=O)NO (stereo not shown) [MH-12/4, N-(1-Hydroxycarbamoyl-ethyl)-4-pyren-1-yl-butyramide]		TΔS°obs [2, 4]: 5.3 ± 0.4 kcal/mol; ΔH°obs [2, 4]: –2.72 ± 0.3 kcal/mol; binding enthalpy less favorable than that of SAHA by [2, 5]: 8.2 kcal/mol; binding entropy (TΔS°) more favorable than that of SAHA by [2, 5]: 7.8 kcal/mol; ΔCp° ([3]; 5–25 °C, Tris-HCl buffer, slope of ΔH°obs vs temperature): –0.13 ± 0.02 kcal mol^–1 K^–1
0.9 ± 0.1	–8.4 ± 0.3 kcal/mol	288	O=C(CCCCCCC(=O)Nc1ccccc1)NO [SAHA, suberoylanilide hydroxamic acid]		higher favorable binding enthalpy compared to that of TSA ([2]; Table 1 conditions): 2 kcal/mol; stoichiometry of the enzyme–SAHA complex ([2]; control ITC titration for every batch of enzyme): 0.9–1
			O=C(CCCCCCC(=O)Nc1cccnc1)NO [pyroxamide]	1000	
